Reference: patent US6447749B1, “Perfluoro-alkyl containing dye molecules and galencial formulations” (Schering Aktiengesellschaft, priority 1999, dated 2002)

Tested on: lymph nodes
Experiment: Fluorescence coloring of lymph nodes after intravenous administration
Assay type: in vivo
Settings: rat; 5 hours after intravenous administration; 0.2 ml of 0.5 mmol/L dye 8 and 9.5 mmol/L Gd complex; excitation 740 nm, detection >800 nm
Protocol: From the substance, 0.2 ml of a solution that contained 0.5 mmol/L of dye 8 and 9.5 mmol/L of 10-[1-methyl-2-oxo-3-aza-5-oxo-5-{4-perfluorooctylsulfonyl-piperazin-1-yl}-pentyl]-1,4,7-tris(carboxymethyl)-1,4,7,10-tetraazacyclododecane, was administered intravenously in a caudal vein of the rat. Five hours after administration, the lymph nodes were prepared and a fluorescence image was recorded. The fluorescence of the substances was stimulated by irradiation of the lymph nodes with near-infrared light of wavelength 740 nm, which was produced with an Nd:YAG laser. The fluorescence radiation was detected at a wavelength of >800 nm by an intensified CCD-camera, and the fluorescence images were stored digitally.

Compound: CC1(C)C(=CC=CC=CC=CC2=[N+](CCCCS(=O)(=O)[O-])c3ccc(C(=O)N(CCOCCC(F)(F)C(F)(F)C(F)(F)C(F)(F)C(F)(F)C(F)(F)C(F)(F)C(F)(F)F)CC(O)CO)cc3C2(C)C)N(CCCCS(=O)(=O)[O-])c2ccccc21.[Na+] (stereo not shown) [Dye 10, 5-{N-[2-(3,3,4,4,5,5,6,6,7,7,8,8,9,9,10,10,10-heptadecafluorodecyloxy)ethyl]-N-(2,3-dihydroxypropyl)aminocarbonyl}-2-{7-[1,3-dihydro-3,3-dimethyl-1-(4-sulfobutyl)-2H-indol-2-ylidene]-1,3,5-heptatrienyl}-3,3-dimethyl-1-(4-sulfobutyl)-3H-indolium, internal salt, sodium salt]
- fluorescence signal of axillary, inguinal and popliteal lymph nodes: All lymph nodes showed a clear fluorescence signal
